Data reported in PubChem BioAssay AID1963840 (Molecular Pharmacology Branch, DTP, NCI, 2024).

System: 695427-040-R-J1-PDC complex spheroid viability
Test: Anticancer human tumor 695427-040-R-J1-PDC patient-derived colon adenocarcinoma cell line growth inhibition [POLQ]
Settings: for IC50: curve of first compound; for viability, T/C: stronger effect = lower value
How it was run: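 Patient-derived tumour cells were co-cultured with HUVEC and mesenchymal stem cells as multicellular spheroids at 37 °C. They were treated with POLQ inhibitors (novobiocin, ART-558, RP6685) alone or combined with other agents. Top concentrations were at or near clinical Cmax (otherwise 10 microM; SN-38 at 1 microM), decreasing in half-log steps.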

[1] = second compound 0.0316 µM, first compound 0.0316 µM
[2] = second compound 0.0316 µM, first compound 0.1 µM
[3] = second compound 0.0316 µM, first compound 0.316 µM
[4] = second compound 0.0316 µM, first compound 1 µM
[5] = second compound 0.0316 µM, first compound 3.16 µM
[6] = second compound 0.0316 µM, first compound 10 µM
[7] = second compound 0.1 µM, first compound 0.0316 µM
[8] = second compound 0.1 µM, first compound 0.1 µM
[9] = second compound 0.1 µM, first compound 0.316 µM
[10] = second compound 0.1 µM, first compound 1 µM
[11] = second compound 0.1 µM, first compound 3.16 µM
[12] = second compound 0.1 µM, first compound 10 µM
[13] = second compound 0.316 µM, first compound 0.0316 µM
[14] = second compound 0.316 µM, first compound 0.1 µM
[15] = second compound 0.316 µM, first compound 0.316 µM
[16] = second compound 0.316 µM, first compound 1 µM
[17] = second compound 0.316 µM, first compound 3.16 µM
[18] = second compound 0.316 µM, first compound 10 µM
[19] = second compound 1 µM, first compound 0.0316 µM
[20] = second compound 1 µM, first compound 0.1 µM
[21] = second compound 1 µM, first compound 0.316 µM
[22] = second compound 1 µM, first compound 1 µM
[23] = second compound 1 µM, first compound 3.16 µM
[24] = second compound 1 µM, first compound 10 µM
[25] = second compound 3.16 µM, first compound 0.0316 µM
[26] = second compound 3.16 µM, first compound 0.1 µM
[27] = second compound 3.16 µM, first compound 0.316 µM
[28] = second compound 3.16 µM, first compound 1 µM
[29] = second compound 3.16 µM, first compound 3.16 µM
[30] = second compound 3.16 µM, first compound 10 µM
[31] = second compound 10 µM, first compound 0.0316 µM
[32] = second compound 10 µM, first compound 0.1 µM
[33] = second compound 10 µM, first compound 0.316 µM
[34] = second compound 10 µM, first compound 1 µM
[35] = second compound 10 µM, first compound 3.16 µM
[36] = second compound 10 µM, first compound 10 µM
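Also: spheroids exposed to compounds for seven days.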
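For viability, T/C in this document: 100% = DMSO vehicle control viability.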

## CC1COCCN1c1cc(C2(S(C)(=N)=O)CC2)nc(-c2ccnc3[nH]ccc23)n1 (stereo unspecified) + Cc1cccc(N(C)C(=O)C2C(O)CCN2c2nc(C)cc(C(F)(F)F)c2C#N)c1
Second compound 0.0316 µM
  IC50: > 10 µM
Second compound 0.1 µM
  IC50: > 10 µM
Second compound 0.316 µM
  IC50: > 10 µM
Second compound 1 µM
  IC50: > 10 µM
Second compound 3.16 µM
  IC50: > 10 µM
Second compound 10 µM
  IC50: > 10 µM
[1]
  viability, T/C: 104%
[2]
  viability, T/C: 99.1%
[3]
  viability, T/C: 101%
[4]
  viability, T/C: 95.1%
[5]
  viability, T/C: 101%
[6]
  viability, T/C: 82.5%
[7]
  viability, T/C: 107%
[8]
  viability, T/C: 101%
[9]
  viability, T/C: 98.5%
[10]
  viability, T/C: 93.8%
[11]
  viability, T/C: 95.5%
[12]
  viability, T/C: 81.2%
[13]
  viability, T/C: 105%
[14]
  viability, T/C: 95.7%
[15]
  viability, T/C: 100%
[16]
  viability, T/C: 93.4%
[17]
  viability, T/C: 91.7%
[18]
  viability, T/C: 88.8%
[19]
  viability, T/C: 91.1%
[20]
  viability, T/C: 91.6%
[21]
  viability, T/C: 101%
[22]
  viability, T/C: 103%
[23]
  viability, T/C: 107%
[24]
  viability, T/C: 80.9%
[25]
  viability, T/C: 103%
[26]
  viability, T/C: 89.8%
[27]
  viability, T/C: 89.7%
[28]
  viability, T/C: 89.9%
[29]
  viability, T/C: 97%
[30]
  viability, T/C: 73.9%
[31]
  viability, T/C: 93.1%
[32]
  viability, T/C: 96.8%
[33]
  viability, T/C: 91.9%
[34]
  viability, T/C: 87.8%
[35]
  viability, T/C: 92.8%
[36]
  viability, T/C: 67.1%

## C#Cc1c(F)ccc2cc(O)cc(-c3ncc4c(N5CC6CCC(C5)N6)nc(OCC56CCCN5CC(F)C6)nc4c3F)c12 (stereo unspecified) + Cc1cccc(N(C)C(=O)C2C(O)CCN2c2nc(C)cc(C(F)(F)F)c2C#N)c1
Second compound 0.0316 µM
  IC50: > 10 µM
Second compound 0.1 µM
  IC50: > 10 µM
Second compound 0.316 µM
  IC50: > 10 µM
Second compound 1 µM
  IC50: > 10 µM
Second compound 3.16 µM
  IC50: > 10 µM
Second compound 10 µM
  IC50: > 10 µM
[1]
  viability, T/C: 106%
[2]
  viability, T/C: 99.3%
[3]
  viability, T/C: 98%
[4]
  viability, T/C: 104%
[5]
  viability, T/C: 88.3%
[6]
  viability, T/C: 86.9%
[7]
  viability, T/C: 102%
[8]
  viability, T/C: 100%
[9]
  viability, T/C: 90.8%
[10]
  viability, T/C: 96%
[11]
  viability, T/C: 92.1%
[12]
  viability, T/C: 78.8%
[13]
  viability, T/C: 98.3%
[14]
  viability, T/C: 99%
[15]
  viability, T/C: 97.8%
[16]
  viability, T/C: 104%
[17]
  viability, T/C: 90.8%
[18]
  viability, T/C: 80.6%
[19]
  viability, T/C: 98%
[20]
  viability, T/C: 92.4%
[21]
  viability, T/C: 94.3%
[22]
  viability, T/C: 92.1%
[23]
  viability, T/C: 89.2%
[24]
  viability, T/C: 83.2%
[25]
  viability, T/C: 88.5%
[26]
  viability, T/C: 94.3%
[27]
  viability, T/C: 97%
[28]
  viability, T/C: 90.4%
[29]
  viability, T/C: 91%
[30]
  viability, T/C: 76.1%
[31]
  viability, T/C: 92.8%
[32]
  viability, T/C: 84.7%
[33]
  viability, T/C: 85.4%
[34]
  viability, T/C: 84.7%
[35]
  viability, T/C: 73.2%
[36]
  viability, T/C: 61.5%

## CC(=O)O[C@H]1C(=O)[C@@]2(C)[C@H]([C@H](OC(=O)c3ccccc3)[C@]3(O)C[C@H](OC(=O)[C@H](O)[C@@H](NC(=O)c4ccccc4)c4ccccc4)C(C)=C1C3(C)C)[C@]1(OC(C)=O)CO[C@@H]1C[C@@H]2O + COC1C(OC(N)=O)C(O)C(Oc2ccc3c(O)c(NC(=O)c4ccc(O)c(CC=C(C)C)c4)c(=O)oc3c2C)OC1(C)C
Second compound 0.0316 µM
  IC50: > 3 µM
Second compound 0.1 µM
  IC50: > 3 µM
Second compound 0.316 µM
  IC50: > 3 µM
Second compound 1 µM
  IC50: > 3 µM
Second compound 3.16 µM
  IC50: > 3 µM
Second compound 10 µM
  IC50: > 3 µM
Second compound 0.0316 µM, first compound 0.00949 µM
  viability, T/C: 96.4%
Second compound 0.0316 µM, first compound 0.03 µM
  viability, T/C: 85.9%
Second compound 0.0316 µM, first compound 0.0949 µM
  viability, T/C: 84.7%
Second compound 0.0316 µM, first compound 0.3 µM
  viability, T/C: 89.5%
Second compound 0.0316 µM, first compound 0.949 µM
  viability, T/C: 84.6%
Second compound 0.0316 µM, first compound 3 µM
  viability, T/C: 72.2%
Second compound 0.1 µM, first compound 0.00949 µM
  viability, T/C: 96.4%
Second compound 0.1 µM, first compound 0.03 µM
  viability, T/C: 98.1%
Second compound 0.1 µM, first compound 0.0949 µM
  viability, T/C: 94.1%
Second compound 0.1 µM, first compound 0.3 µM
  viability, T/C: 85.9%
Second compound 0.1 µM, first compound 0.949 µM
  viability, T/C: 89.8%
Second compound 0.1 µM, first compound 3 µM
  viability, T/C: 72.4%
Second compound 0.316 µM, first compound 0.00949 µM
  viability, T/C: 103%
Second compound 0.316 µM, first compound 0.03 µM
  viability, T/C: 91.4%
Second compound 0.316 µM, first compound 0.0949 µM
  viability, T/C: 91%
Second compound 0.316 µM, first compound 0.3 µM
  viability, T/C: 92.4%
Second compound 0.316 µM, first compound 0.949 µM
  viability, T/C: 88.1%
Second compound 0.316 µM, first compound 3 µM
  viability, T/C: 77.9%
Second compound 1 µM, first compound 0.00949 µM
  viability, T/C: 99.2%
Second compound 1 µM, first compound 0.03 µM
  viability, T/C: 93.3%
Second compound 1 µM, first compound 0.0949 µM
  viability, T/C: 86.1%
Second compound 1 µM, first compound 0.3 µM
  viability, T/C: 90.5%
Second compound 1 µM, first compound 0.949 µM
  viability, T/C: 88.5%
Second compound 1 µM, first compound 3 µM
  viability, T/C: 78.6%
Second compound 3.16 µM, first compound 0.00949 µM
  viability, T/C: 92.5%
Second compound 3.16 µM, first compound 0.03 µM
  viability, T/C: 97.9%
Second compound 3.16 µM, first compound 0.0949 µM
  viability, T/C: 86.7%
Second compound 3.16 µM, first compound 0.3 µM
  viability, T/C: 87.3%
Second compound 3.16 µM, first compound 0.949 µM
  viability, T/C: 87.6%
Second compound 3.16 µM, first compound 3 µM
  viability, T/C: 76.3%
Second compound 10 µM, first compound 0.00949 µM
  viability, T/C: 93.7%
Second compound 10 µM, first compound 0.03 µM
  viability, T/C: 97.2%
Second compound 10 µM, first compound 0.0949 µM
  viability, T/C: 91.7%
Second compound 10 µM, first compound 0.3 µM
  viability, T/C: 88.5%
Second compound 10 µM, first compound 0.949 µM
  viability, T/C: 87.6%
Second compound 10 µM, first compound 3 µM
  viability, T/C: 77%
